Test results: PMC11813896, “Bis(7)-harmine derivatives as potential multi-target anti-Alzheimer agents” (Frontiers in Chemistry, 2025)
Where two headings read alike, the source gives them in different places.

Assays:
AChE = settings: cited from earlier work
BuChE = settings: cited from earlier work
Aβ1-42 = settings: cited from earlier work
hAChE = hAChE (Homo sapiens, UniProt P22303); assay: biochemical; settings: for IC50: Mean ± SD from 3-5 assays, read-out: IC50 (nM) for cholinesterase hAChE
hAChE, sequence (P22303 32-614): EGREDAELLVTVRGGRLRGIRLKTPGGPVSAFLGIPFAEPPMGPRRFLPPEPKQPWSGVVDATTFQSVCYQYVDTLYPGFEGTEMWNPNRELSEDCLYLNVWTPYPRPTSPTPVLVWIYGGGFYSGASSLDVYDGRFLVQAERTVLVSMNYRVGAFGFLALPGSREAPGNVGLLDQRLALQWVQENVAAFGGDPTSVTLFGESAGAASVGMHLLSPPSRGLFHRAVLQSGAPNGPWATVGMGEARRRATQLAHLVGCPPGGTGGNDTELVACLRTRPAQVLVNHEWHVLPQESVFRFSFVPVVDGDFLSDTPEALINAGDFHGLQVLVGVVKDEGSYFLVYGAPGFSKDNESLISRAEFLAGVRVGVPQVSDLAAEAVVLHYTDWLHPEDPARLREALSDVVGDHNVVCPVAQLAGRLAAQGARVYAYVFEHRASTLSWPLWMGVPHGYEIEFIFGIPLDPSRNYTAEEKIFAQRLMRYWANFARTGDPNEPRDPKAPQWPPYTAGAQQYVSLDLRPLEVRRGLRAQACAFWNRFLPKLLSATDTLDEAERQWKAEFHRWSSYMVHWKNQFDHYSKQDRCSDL
Protocol: 50 μL of hAChE (0.02 unit/mL) or hBChE (0.02 unit/mL) were incubated with 10 μL of the compound in 96-well plates at 37°C for 6 min. Subsequently, 30 μL of a substrate solution containing acetylthiocholine iodide (ATCI) or butyrylthiocholine iodide (BTCI) at a concentration of 0.01 M was added, and the mixture was further incubated at 37°C for an additional duration of 12 min.

hBuChE = hBuChE (Homo sapiens, UniProt P06276); assay: Ellman's assay, hBuChE inhibition; assay type: biochemical; settings: for IC50: Mean ± SD from 3-5 assays, read-out: IC50 (nM) for cholinesterase hBuChE; for inhibition at 1 µM: compound at 1 μM, read-out: inhibition of hBuChE in primary screening
hBuChE, sequence (P06276 29-602): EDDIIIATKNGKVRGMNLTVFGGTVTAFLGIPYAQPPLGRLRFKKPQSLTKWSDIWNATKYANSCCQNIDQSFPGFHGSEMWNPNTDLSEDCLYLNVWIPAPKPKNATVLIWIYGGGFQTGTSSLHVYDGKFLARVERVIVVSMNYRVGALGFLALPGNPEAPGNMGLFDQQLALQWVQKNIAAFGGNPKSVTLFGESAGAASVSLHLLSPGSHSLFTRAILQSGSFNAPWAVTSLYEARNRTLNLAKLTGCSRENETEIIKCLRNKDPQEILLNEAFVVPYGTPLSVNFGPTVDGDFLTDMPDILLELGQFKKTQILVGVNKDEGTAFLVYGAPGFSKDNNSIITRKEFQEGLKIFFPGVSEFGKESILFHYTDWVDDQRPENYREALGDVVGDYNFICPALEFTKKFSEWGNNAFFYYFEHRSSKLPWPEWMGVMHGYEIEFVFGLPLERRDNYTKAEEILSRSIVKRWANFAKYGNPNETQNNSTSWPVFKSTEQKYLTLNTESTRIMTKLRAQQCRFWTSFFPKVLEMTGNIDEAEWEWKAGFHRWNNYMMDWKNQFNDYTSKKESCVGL
Protocol: The Ellman’s assay was utilized to assess the inhibitory potential of novel bis(7)-harmine derivatives against hAChE and hBuChE. 50 μL of hAChE (0.02 unit/mL) or hBChE (0.02 unit/mL) were incubated with 10 μL of the compound in 96-well plates at 37°C for 6 min. Subsequently, 30 μL of a substrate solution containing acetylthiocholine iodide (ATCI) or butyrylthiocholine iodide (BTCI) at a concentration of 0.01 M was added, and the mixture was further incubated at 37°C for an additional duration of 12 min. Finally, the activity was measured by adding 150 μL of a solution containing 5,5′−dithiobis (2-nitrobenzoic acid) (DTNB) at a concentration of 0.01 M, followed by measuring absorbance at a wavelength of 415 nm using an Evolution 300 PC UV-Vis Spectrophotometer.

recombinant hMAO-A = target: T1, recombinant hMAO-A (Homo sapiens, UniProt P21397); assay: biochemical; settings: for IC50: mean ± SD, read-out: IC50 (nM) for monoamine oxidases hMAO-A
T1 construct: purchased Sigma-Aldrich
T1 sequence (P21397 1-527): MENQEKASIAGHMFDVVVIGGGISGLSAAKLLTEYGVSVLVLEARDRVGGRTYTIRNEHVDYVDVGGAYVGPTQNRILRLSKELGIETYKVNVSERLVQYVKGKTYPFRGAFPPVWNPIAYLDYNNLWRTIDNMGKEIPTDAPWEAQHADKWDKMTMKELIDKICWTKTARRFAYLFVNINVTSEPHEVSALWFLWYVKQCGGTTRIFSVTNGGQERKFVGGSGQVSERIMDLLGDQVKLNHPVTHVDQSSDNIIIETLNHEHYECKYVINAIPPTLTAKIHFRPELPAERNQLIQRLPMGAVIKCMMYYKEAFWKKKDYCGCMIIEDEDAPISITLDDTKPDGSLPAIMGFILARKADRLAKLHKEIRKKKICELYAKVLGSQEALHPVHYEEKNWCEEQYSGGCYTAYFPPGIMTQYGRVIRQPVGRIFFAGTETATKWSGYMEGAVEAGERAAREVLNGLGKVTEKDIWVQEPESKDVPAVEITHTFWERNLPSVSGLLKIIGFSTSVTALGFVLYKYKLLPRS
Protocol: (§1) Briefly, the compounds under investigation and the reference inhibitor were preincubated with kynuramine at 37°C for 10 min in 96-well microplates. […] The enzymatic reactions were terminated by adding 400 μL of 2 N NaOH and 1,000 μL of water, followed by centrifugation at 16,000 g for 10 min. Subsequently, the concentrations of MAOs that produced 4-hydroxyquinoline were determined by measuring the fluorescence of the supernatant using a Varioskan Flash Multimode Reader ([…]) with excitation and emission wavelengths set at 310 nm and 400 nm, respectively. The IC50 values were calculated from dose-response curves and expressed as the mean ± standard deviation. These values were determined based on at least three independent experiments, each performed in triplicate.

recombinant hMAO-B = target: T2, recombinant hMAO-B (Homo sapiens, UniProt P27338); assay: biochemical; settings: mean ± SD; read-out: IC50 (nM) for monoamine oxidases hMAO-B
T2 construct: purchased Sigma-Aldrich
T2 sequence (P27338 1-520): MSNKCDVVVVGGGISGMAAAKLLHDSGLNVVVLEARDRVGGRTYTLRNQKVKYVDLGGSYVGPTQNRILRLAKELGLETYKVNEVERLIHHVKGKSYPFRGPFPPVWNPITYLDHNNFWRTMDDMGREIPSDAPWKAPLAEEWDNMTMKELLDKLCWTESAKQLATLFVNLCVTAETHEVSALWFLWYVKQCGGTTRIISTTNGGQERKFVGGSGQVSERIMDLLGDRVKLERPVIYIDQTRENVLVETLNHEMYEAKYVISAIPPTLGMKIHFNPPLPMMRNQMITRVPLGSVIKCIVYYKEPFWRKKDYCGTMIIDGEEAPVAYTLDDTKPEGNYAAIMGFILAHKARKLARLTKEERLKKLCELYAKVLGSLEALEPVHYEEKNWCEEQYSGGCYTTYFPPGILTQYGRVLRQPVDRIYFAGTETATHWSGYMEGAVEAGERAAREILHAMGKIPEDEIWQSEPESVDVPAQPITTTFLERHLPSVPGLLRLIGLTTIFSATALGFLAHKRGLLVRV
Protocol: as §1

Aβ 1−42 = Aβ 1−42 (Homo sapiens, UniProt P05067); assay: Thioflavin T fluorescence assay, Aβ 1−42 self-aggregation; assay type: biochemical; settings: Aβ 1-42 20 μM, 37°C, 24 h
Aβ 1−42, sequence (P05067 672-713 limits assumed): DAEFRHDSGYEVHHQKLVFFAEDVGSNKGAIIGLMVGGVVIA
Protocol: The thioflavin T (Th-T) fluorescence assay was used to assess the inhibition of Aβ 1−42 self-aggregation. […] Subsequently, the reaction was terminated to a final volume of 200 μL using Th-T (10 μM) solution.

SHSY5Y cells [1] = assay: In vitro cytotoxicity, MTT assay; assay type: cell-based; settings: for cytotoxicity in SHSY5Y cells: 0.1 to 10 μM; for SHSY5Y cell viability at increased concentration: concentration increased to 10 μM (so in the source)
Protocol: Following this incubation period, the MTT solution was substituted with […] of DMSO and further incubated at room temperature for 10 minutes to dissolve formazan crystals formed by viable cells. Sorensen Buffer ([…]) was added subsequently followed by measuring absorbance at a wavelength of 570 nm to determine cell viability based on calculated values obtained from control samples without compound treatment. This experimental procedure was repeated independently three times.

BACE1 = system: BACE1; design: method as in Bolognesi et al., 2010; settings: ref Bolognesi et al., 2010; read-out: IC50 for inhibiting BACE1 (bis-tacrine); cited from earlier work
SHSY5Y cells [2] = assay: Protection of SHSY5Y cells against damage induced by Aβ 1−42, MTT; assay type: cell-based, human; settings: for cellular recovery from Aβ 1-42-induced damage: 1 μM, co-exposed with Aβ 1-42 for 48 h
Protocol: The protective effect of the test compounds against Aβ 1-42-induced damage was assessed by monitoring MTT reduction in cells co-exposed to the compound and Aβ 1-42 for 48 h (Figure 3) ([…]). The 6d, 8c, and 8d were tested at concentrations of 1, 5, and 10 μM. […] Therefore, it is imperative to elucidate the underlying mechanisms responsible for these protective effects.
The SHSY5Y cells were seeded in 96-well plates at a density of 1 × 10^4 cells per well and incubated at 37°C for 24 h. Each compound was dissolved in DMSO, followed by direct dilution in the cell culture medium to achieve final concentrations of 1 μM, 5 μM, and 10 μM. Aβ 1−42 was added to each well at a concentration of 5 μM. The cells were then further incubated at 37°C for an additional period of 48 h. Cell viability was subsequently assessed using the MTT assay protocol ([…]).

Compound | S.I. Selectivity index IC50(hBuChE)/IC50(hAChE) (hAChE) | IC50 (hAChE) | S.I. Selectivity index IC50(hMAO-B)/IC50(hMAO-A) (recombinant hMAO-A) | IC50 (recombinant hMAO-A) | IC50 (recombinant hMAO-B) | IC50 (Aβ 1−42) | inhibition at 1 µM (hBuChE) | also measured
COC(=O)c1cc2c3ccccc3n(CCCCN(C)CCN(C)CCCCn3c4ccccc4c4cc(C(=O)OC)nc(C)c43)c2c(C)n1 [Compound 5, Bis-(9)-β-carboline] |  |  |  |  |  |  |  | IC50 (AChE; ref Rook et al., 2010, Zhao et al., 2018, read-out: AChE (bis-(9)-β-carboline 5, Figure 1)): 9600 nM; IC50 (BuChE; ref Rook et al., 2010, Zhao et al., 2018, read-out: BuChE (bis-(9)-β-carboline 5, Figure 1)): 1500 nM; Aβ1-42 (bis-(9)-β-carboline 5, Figure 1) (Aβ1-42; ref Rook et al., 2010, Zhao et al., 2018): 65.5%
c1ccc2c(c1)[nH]c1c[n+](CCCCCCCCCCCC[n+]3ccc4c(c3)[nH]c3ccccc34)ccc12 [Compound 4] |  |  |  |  |  |  |  | IC50 (AChE; ref Rook et al., 2010, Zhao et al., 2018, read-out: AChE (bis-(2)-β-carboline 4, Figure 1)): 86 nM; IC50 (BuChE; ref Rook et al., 2010, Zhao et al., 2018, read-out: BuChE (bis-(2)-β-carboline 4, Figure 1)): 22 nM
CCn1c2cc(OCCCCCCCCOc3ccc4c5ccnc(C)c5n(CC)c4c3)ccc2c2ccnc(C)c21 [Compound 8b, 1,8-bis ((9-ethyl-1-methyl-9H-pyrido [3,4-b]indol-7-yl)oxy)octane] | 2.7 | 324 ± 20.5 nM | 11.5 | 66.5 ± 4.1 nM | 758 ± 52.6 nM | 18.7 ± 0.9 µM |  | IC50 (hBuChE): 855 ± 48.8 nM; effect on SHSY5Y cell viability (SHSY5Y cells [1]; 1 μM, 48 h): pronounced detrimental effect
c1ccc2c(NCCCCCCCNc3c4c(nc5ccccc35)CCCC4)c3c(nc2c1)CCCC3 [Compound 2, Bis-tacrine] |  |  |  |  |  |  |  | IC50 (AChE; ref Bolognesi et al., 2010, read-out: IC50 for inhibiting AChE (bis-tacrine)): […]; IC50 (BuChE; ref Bolognesi et al., 2010, read-out: IC50 for inhibiting BuChE (bis-tacrine)): 5.66 nM; IC50 (BACE1): 7500 nM; Aβ1-42 (bis-tacrine, Figure 1) (Aβ1-42; ref Bolognesi et al., 2010): 68.0%
Aβ 1−42: amyloid-β peptide 1−42 used to induce damage in SHSY5Y cells [reference compound] |  |  |  |  |  |  |  | reduction of viability of SHSY5Y neuroblastoma cells (SHSY5Y cells [2]; treatment with Aβ 1−42 5 μM, 48 h, MTT): 48.7%
C=CCn1c2cc(OC(=O)CCCCN3CCN(Cc4ccc(C(F)(F)F)cc4)CC3)ccc2c2ccnc(C)c21 [Compound 7] |  |  |  |  |  |  |  | IC50 (AChE; ref Du et al., 2023, Haider et al., 2018, read-out: AChE (compound 7 of Figure 1)): 48.4 nM; IC50 (BuChE; ref Du et al., 2023, Haider et al., 2018, read-out: BuChE (compound 7 of Figure 1)): 356 nM; IC50 (Aβ1-42; ref Du et al., 2023, Haider et al., 2018, read-out: Aβ1-42 (compound 7 of Figure 1)): 12400 nM
C=CCn1c2cc(OCCCCCCOc3ccc4c5ccnc(C)c5n(CC=C)c4c3)ccc2c2ccnc(C)c21 [Compound 6d, 1,6-bis ((9-allyl-1-methyl-9H-pyrido [3,4-b]indol-7-yl)oxy)hexane] | 1.9 | 54.3 ± 3.6 nM | 0.5 | 402 ± 23.7 nM | 189 ± 13.6 nM | 14.1 ± 0.5 µM |  | IC50 (hBuChE): 102 ± 4.6 nM; effect on SHSY5Y cell viability (SHSY5Y cells [1]; 0.1–100 μM, 48 h incubation): no significant impact on cell viability; cellular recovery from Aβ 1-42-induced damage (SHSY5Y cells [2]): significant cellular recovery
C=CCn1c2cc(OCCCCCCCCOc3ccc4c5ccnc(C)c5n(CC=C)c4c3)ccc2c2ccnc(C)c21 [Compound 8d, 1,8-bis ((9-allyl-1-methyl-9H-pyrido [3,4-b]indol-7-yl)oxy)octane] | >1.0 | 963 ± 69.5 nM |  | 25.7 ± 1.9 nM | 335 ± 13.8 nM | 9.2 ± 0.4 µM | 39.8% | cytotoxicity in SHSY5Y cells (SHSY5Y cells [1]; 48 h): negligible cytotoxicity; SHSY5Y cell viability at increased concentration (SHSY5Y cells [1]; 48 h): evident decrease in SHSY5Y cell viability; cellular recovery from Aβ 1-42-induced damage (SHSY5Y cells [2]): significant cellular recovery
CCCn1c2cc(OCCCCCCCCOc3ccc4c5ccnc(C)c5n(CCC)c4c3)ccc2c2ccnc(C)c21 [Compound 8c, 1,8-bis ((1-methyl-9-propyl-9H-pyrido [3,4-b]indol-7-yl)oxy)octane] | >6.3 | 158 ± 11.6 nM | 9.5 | 16.4 ± 1.1 nM | 153 ± 8.3 nM | 19.3 ± 1 µM | 43.4% | cytotoxicity in SHSY5Y cells (SHSY5Y cells [1]; 48 h): negligible cytotoxicity; SHSY5Y cell viability at increased concentration (SHSY5Y cells [1]; 48 h): evident decrease in SHSY5Y cell viability
Cc1nccc2c3ccc(OCCCCCCCOc4ccc5c6ccnc(C)c6n(C)c5c4)cc3n(C)c12 [Compound 7a, 1,7-bis ((1,9-dimethyl-9H-pyrido [3,4-b]indol-7-yl)oxy)heptane] | >4.4 | 226 ± 13.4 nM | 40.1 | 7.2 ± 0.8 nM | 281 ± 24.5 nM | 6.3 ± 0.2 µM | 37.3% | effect on SHSY5Y cell viability (SHSY5Y cells [1]; 1 μM, 48 h): pronounced detrimental effect
